From PubChem BioAssay AID248 (DTP/NCI, 2004)
Inconclusive results and toxic doses are left out.

System: L1210 leukemia ip in BDF1 mice, survival T/C
Assay: NCI In Vivo Anticancer Drug Screen. Data for tumor model L1210 Leukemia (intraperitoneal) in B6D2F1 (BDF1) mice
Conditions: endpoint: mean survival time, higher = longer survival
Procedure, shortened: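 Transplanted-tumor mice were given test agent; controls received vehicle only. Survival readings from the two groups were divided (treated over control).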

[1] = dose: 100.0 mg/kg/injection, schedule: Q01DX009 (ip), vehicle: saline with Tween-80
[2] = dose: 100.0 mg/kg/injection, schedule: Q04DX003 (ip), vehicle: saline with Tween-80
[3] = dose: 200.0 mg/kg/injection, schedule: Q01DX009 (ip), vehicle: saline with Tween-80
[4] = dose: 200.0 mg/kg/injection, schedule: Q04DX003 (ip), vehicle: saline with Tween-80
[5] = dose: 400.0 mg/kg/injection, schedule: Q01DX009 (ip), vehicle: saline with Tween-80
[6] = dose: 400.0 mg/kg/injection, schedule: Q04DX003 (ip), vehicle: saline with Tween-80
[7] = dose: 100.0 mg/kg/injection, schedule: Q04DX003 (ip), vehicle: Klucel (hydroxypropylcellulose) (HPC)
[8] = dose: 200.0 mg/kg/injection, schedule: Q04DX003 (ip), vehicle: Klucel (hydroxypropylcellulose) (HPC)
[9] = dose: 400.0 mg/kg/injection, schedule: Q04DX003 (ip), vehicle: Klucel (hydroxypropylcellulose) (HPC)
[10] = dose: 200.0 mg/kg/injection, schedule: Q04DX003 (ip), vehicle: gum acacia
[11] = dose: 400.0 mg/kg/injection, schedule: Q04DX003 (ip), vehicle: gum acacia
[12] = dose: 50.0 mg/kg/injection, schedule: Q01DX009 (ip), vehicle: Klucel (hydroxypropylcellulose) (HPC)
[13] = dose: 100.0 mg/kg/injection, schedule: Q01DX009 (ip), vehicle: Klucel (hydroxypropylcellulose) (HPC)
[14] = dose: 200.0 mg/kg/injection, schedule: Q01DX009 (ip), vehicle: Klucel (hydroxypropylcellulose) (HPC)
[15] = dose: 100.0 mg/kg/injection, schedule: Q01DX001 (ip), vehicle: saline
[16] = dose: 200.0 mg/kg/injection, schedule: Q01DX001 (ip), vehicle: saline
[17] = dose: 400.0 mg/kg/injection, schedule: Q01DX001 (ip), vehicle: saline
[18] = dose: 400.0 mg/kg/injection, schedule: Q01DX009 (ip), vehicle: Klucel (hydroxypropylcellulose) (HPC)
[19] = dose: 100.0 mg/kg/injection, schedule: Q01DX009 (ip), vehicle: saline
[20] = dose: 200.0 mg/kg/injection, schedule: Q01DX009 (ip), vehicle: saline
[21] = dose: 400.0 mg/kg/injection, schedule: Q01DX009 (ip), vehicle: saline
[22] = dose: 100.0 mg/kg/injection, schedule: Q04DX003 (ip), vehicle: saline
[23] = dose: 200.0 mg/kg/injection, schedule: Q04DX003 (ip), vehicle: saline
[24] = dose: 400.0 mg/kg/injection, schedule: Q04DX003 (ip), vehicle: saline

O=c1cc(Cl)c(=O)[nH][nH]1
T/C [1]: 100 % of control | T/C [2]: 94 % of control | T/C [3]: 100 % of control | T/C [4]: 94 % of control | T/C [5]: 114 % of control | T/C [6]: 94 % of control

O=C(NC(=S)Nc1ccccc1Cl)c1ccccc1
T/C [7]: 94 % of control | T/C [8]: 96 % of control | T/C [9]: 97 % of control

O=c1[nH]c2ccccc2n1C1CCN(CCCS(=O)(=O)c2ccccc2)CC1
T/C [10]: 91 % of control | T/C [11]: 87 % of control

COc1cc(CC2c3cc(OC)c(OC)cc3CCN2C)c(Oc2cc3c(cc2OC)-c2c(OC)c(OC)c(OC)c4c2C(C3)N(C)CC4)cc1OC (configuration not stated)
T/C [2]: 97 % of control | T/C [4]: 97 % of control

CCOC(=O)/C=C1\CC2c3cc(OC)c(OC)cc3CCN2CC1CC (configuration not stated)
T/C [12]: 93 % of control | T/C [13]: 96 % of control | T/C [14]: 96 % of control

CC(/C=C/c1ccccc1)=C1/SC(=S)NC1=O
T/C [15]: 93 % of control | T/C [16]: 96 % of control | T/C [17]: 94 % of control

CC1C(=O)/C(=C/N(C)c2ccccc2)CC1C(=O)O (configuration not stated)
T/C (dose: 100.0 mg/kg/injection, schedule: Q01DX001 (ip), vehicle: Klucel (hydroxypropylcellulose) (HPC)): 93 % of control | T/C [7]: 100 % of control | T/C (dose: 200.0 mg/kg/injection, schedule: Q01DX001 (ip), vehicle: Klucel (hydroxypropylcellulose) (HPC)): 93 % of control | T/C [14]: 97 % of control | T/C [8]: 98 % of control | T/C (dose: 400.0 mg/kg/injection, schedule: Q01DX001 (ip), vehicle: Klucel (hydroxypropylcellulose) (HPC)): 87 % of control | T/C [18]: 97 % of control | T/C [9]: 98 % of control

CC(=O)C(C(=O)NCc1ccccc1)C(c1ccc2c(c1)OCO2)C(C(C)=O)C(=O)NCc1ccccc1 (configuration not stated)
T/C [15]: 98 % of control | T/C [16]: 96 % of control | T/C [17]: 97 % of control

Brc1ccc(/C=N/Nc2nnc(N/N=C/c3ccc(Br)cc3)c3ccccc23)cc1
T/C (dose: 50.0 mg/kg/injection, schedule: Q01DX001 (ip), vehicle: saline): 93 % of control | T/C [15]: 96 % of control | T/C [16]: 102 % of control | T/C [17]: 102 % of control

CCOC(=O)CCN(Cc1ccccc1)CC(C)C(=O)OC (configuration not stated)
T/C [1]: 102 % of control | T/C [2]: 104 % of control | T/C [3]: 97 % of control | T/C [4]: 91 % of control | T/C [5]: 95 % of control | T/C [6]: 96 % of control

NCCc1cnc(N=Nc2ccc(C(=O)O)cc2)[nH]1
T/C [12]: 89 % of control | T/C [13]: 89 % of control | T/C [14]: 87 % of control

O=C(Nc1cccc(C(F)(F)F)c1)c1ccc(Cl)c(Cl)c1
T/C (dose: 100.0 mg/kg/injection, schedule: Q01DX009 (ip), vehicle: gum acacia): 108 % of control | T/C (dose: 100.0 mg/kg/injection, schedule: Q04DX003 (ip), vehicle: gum acacia): 100 % of control | T/C [10]: 100 % of control | T/C (dose: 400.0 mg/kg/injection, schedule: Q01DX009 (ip), vehicle: gum acacia): 96 % of control | T/C [11]: 95 % of control

CC(C)(C)C1COC(=O)C1 (configuration not stated)
T/C (dose: 10.0 mg/kg/injection, schedule: Q01DX001 (ip), vehicle: saline): 103 % of control | T/C (dose: 20.0 mg/kg/injection, schedule: Q01DX001 (ip), vehicle: saline): 98 % of control

CCCC(CCC)(C(N)=O)C(=O)O
T/C [19]: 102 % of control | T/C [20]: 100 % of control | T/C [21]: 92 % of control

[N-]=[N+]=C1N=CN=C1c1ncn[nH]1
T/C (dose: 6.0 mg/kg/injection, schedule: Q01DX015 (ip), vehicle: carboxymethylcellulose (CMC)): 120 % of control | T/C (dose: 50.0 mg/kg/injection, schedule: Q01DX001 (ip), vehicle: carboxymethylcellulose (CMC)): 115 % of control | T/C (dose: 55.0 mg/kg/injection, schedule: Q01DX015 (ip), vehicle: carboxymethylcellulose (CMC)): 172 % of control

NC(=O)Nc1cc(NC(N)=O)cc([N+](=O)[O-])c1
T/C [19]: 95 % of control | T/C [22]: 110 % of control | T/C [20]: 88 % of control | T/C [23]: 104 % of control | T/C [21]: 93 % of control | T/C [24]: 110 % of control

CCCCCCCCCCCCCCCCCCn1cnc2ncnc(Cl)c21
T/C (dose: 12.5 mg/kg/injection, schedule: Q01DX005 (ip), vehicle: other): 107 % of control | T/C (dose: 25.0 mg/kg/injection, schedule: Q01DX005 (ip), vehicle: other): 102 % of control | T/C (dose: 50.0 mg/kg/injection, schedule: Q01DX005 (ip), vehicle: other): 98 % of control | T/C (dose: 100.0 mg/kg/injection, schedule: Q01DX005 (ip), vehicle: other): 106 % of control | T/C (dose: 200.0 mg/kg/injection, schedule: Q01DX005 (ip), vehicle: other): 93 % of control

COc1cc(NC2CCCCC2O)c2nc(-c3ccc(Cl)cc3)ccc2c1 (configuration not stated)
T/C [19]: 98 % of control | T/C [20]: 90 % of control | T/C [21]: 86 % of control

Cc1cc(O)n(Cc2ccccc2)c(=O)c1
T/C (dose: 25.0 mg/kg/injection, schedule: Q01DX009 (ip), vehicle: saline with Tween-80): 96 % of control | T/C (dose: 50.0 mg/kg/injection, schedule: Q01DX009 (ip), vehicle: saline with Tween-80): 93 % of control | T/C [1]: 93 % of control | T/C [2]: 109 % of control | T/C [3]: 94 % of control | T/C [4]: 98 % of control | T/C [6]: 90 % of control

COc1ccc(OC(=O)Nc2ccc(Cl)c(Cl)c2)cc1
T/C [13]: 102 % of control | T/C [7]: 95 % of control | T/C [14]: 106 % of control | T/C [8]: 95 % of control | T/C [18]: 95 % of control | T/C [9]: 102 % of control

COc1cccc(CC(N)=O)c1OC
T/C [19]: 97 % of control | T/C [22]: 95 % of control | T/C [20]: 90 % of control | T/C [23]: 92 % of control | T/C [24]: 97 % of control

Nc1cc2ccccc2c(O)c1O
T/C (dose: 100.0 mg/kg/injection, schedule: Q04DX003 (ip), vehicle: saline sonified): 93 % of control | T/C (dose: 200.0 mg/kg/injection, schedule: Q04DX003 (ip), vehicle: saline sonified): 96 % of control | T/C (dose: 400.0 mg/kg/injection, schedule: Q04DX003 (ip), vehicle: saline sonified): 90 % of control

NC(=O)NC=O
T/C [12]: 96 % of control | T/C (dose: 50.0 mg/kg/injection, schedule: Q04DX003 (ip), vehicle: Klucel (hydroxypropylcellulose) (HPC)): 101 % of control | T/C [13]: 102 % of control | T/C [7]: 105 % of control | T/C [14]: 96 % of control | T/C [8]: 115 % of control

COC(=O)c1ccccc1NCCO
T/C [15]: 101 % of control | T/C [16]: 107 % of control | T/C [17]: 101 % of control

CC(=O)c1cnn(-c2ccccc2)c1C
T/C (dose: 100.0 mg/kg/injection, schedule: Q01DX009 (ip), vehicle: other): 96 % of control | T/C (dose: 100.0 mg/kg/injection, schedule: Q04DX003 (ip), vehicle: other): 89 % of control | T/C (dose: 200.0 mg/kg/injection, schedule: Q01DX009 (ip), vehicle: other): 101 % of control | T/C (dose: 200.0 mg/kg/injection, schedule: Q04DX003 (ip), vehicle: other): 100 % of control | T/C (dose: 400.0 mg/kg/injection, schedule: Q01DX009 (ip), vehicle: other): 102 % of control | T/C (dose: 400.0 mg/kg/injection, schedule: Q04DX003 (ip), vehicle: other): 92 % of control

CC(=O)OCCc1ccc(C)cc1
T/C (dose: 100.0 mg/kg/injection, schedule: Q04DX002 (ip), vehicle: saline with Tween-80): 94 % of control | T/C (dose: 200.0 mg/kg/injection, schedule: Q04DX002 (ip), vehicle: saline with Tween-80): 97 % of control | T/C (dose: 400.0 mg/kg/injection, schedule: Q04DX002 (ip), vehicle: saline with Tween-80): 94 % of control

Cc1ccc(NC(=O)c2c(Cl)c(Cl)c(Cl)c(Cl)c2C(=O)O)cc1Cl
T/C [13]: 100 % of control | T/C [7]: 103 % of control | T/C [14]: 98 % of control | T/C [8]: 102 % of control | T/C [9]: 96 % of control

OC1CCCC23CCC12CC3 (configuration not stated)
T/C (dose: 50.0 mg/kg/injection, schedule: Q01DX001 (ip), vehicle: saline with Tween-80): 101 % of control | T/C (dose: 100.0 mg/kg/injection, schedule: Q01DX001 (ip), vehicle: saline with Tween-80): 99 % of control | T/C (dose: 200.0 mg/kg/injection, schedule: Q01DX001 (ip), vehicle: saline with Tween-80): 96 % of control
